# Literature values as cited in US20050273047A1, “System and method for transdermal delivery of an anticoagulant” (priority 2004, published 2005).
# Molecular target: Factor Xa (Homo sapiens, UniProt P00742)
# Conditions: as compared to the corresponding methyl ester; cited from earlier work
# Sequence of Factor Xa (P00742 235-488 limits assumed): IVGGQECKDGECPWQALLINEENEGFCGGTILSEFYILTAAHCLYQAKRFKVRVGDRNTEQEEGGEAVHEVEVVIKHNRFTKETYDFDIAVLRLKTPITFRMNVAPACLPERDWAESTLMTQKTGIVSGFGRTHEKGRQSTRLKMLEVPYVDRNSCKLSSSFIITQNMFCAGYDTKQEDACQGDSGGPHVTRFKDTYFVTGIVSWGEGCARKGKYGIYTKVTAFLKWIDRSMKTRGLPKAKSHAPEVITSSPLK
# Sequence of Factor Xa (P00742 41-179 partner limits assumed): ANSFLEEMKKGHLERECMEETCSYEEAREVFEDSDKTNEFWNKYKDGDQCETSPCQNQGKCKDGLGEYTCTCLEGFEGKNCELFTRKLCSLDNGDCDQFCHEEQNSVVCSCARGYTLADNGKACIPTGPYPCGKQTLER
structure (smiles),measurement,value
CC(=N)N1CC[C@H](Oc2ccc([C@H](Cc3ccc4ccc(C(=N)N)cc4c3)C(=O)O)cc2)C1 [compound shown in FIG. 7],enhancement of Factor Xa selectivity by the carboxylic acid,about 100 fold
